Results as given in ChEMBL document CHEMBL3886901, “Substituted azoles, antiviral active component, pharmaceutical composition, method for preparation and use thereof” (2016).
pIC50: −log10 of the molar value.

Test: Immumoenzymatic Assay: Solutions of the tested compounds in DMEM medium {DMEM) 1x; Source: Cellgro; Catalogue: 10-013-CV} were prepared immediately before use. Eleven serial three fold dilutions with variation of concentrations from 20 nM to 0.2 pM were prepared. In 4 hours after seeding, serial dilutions of the compounds were added to the cells (100 ul to each well). Final concentration of tested compounds was varied from 10 nM to 0.1 pM, and DMSO4 0.5%. If it was necessary, higher concentrations of the disclosed azoles were investigated. Each dilution of the compound was tested on two identical wells. Then the cells were incubated for three days at 37° C./5% CO2 and fixed by addition of acetone/methanol (1:1) mixture in amount of 250 ul/well. In 1 min the cells were washed 3 times with PBS (Phosphate Buffered Saline) solution. Then the cells were blocked by addition of 10% fetal calf serum in PBS solution in amount of 150 ul/well for 1 h at room temperature. Then, the cells were incubated with mouse monoclonal antibodies to cor-antigen HCV, don C7-50 (Source: Affinity BioReagents; Catalogue: MA1-080) (100 ul/well, working dilution 1:500 in 10% fetal calf serum in PBS solution) for 2 h at 37° C. The cells were washed 6 times with PBS/0.05% Tween 20 solution, then, they were incubated for 1 h with goat anti-mouse immunoglobulin antibodies (conjugated with horseradish peroxidase, 100 ul/well, working dilution 1:2500 in 10% fetal calf serum in PBS solution). The cells were washed 6 times with PBS/0.05% Tween 20 solution, once with PBS solution, after that substrate (1 tablet of o-phenylenediamine (oPD)+12 ml citrate/phosphate buffer+5 ul 30% H2O2) in amount of 100 ul/well was added. The plates were kept for 30 min in the dark at room temperature. The reaction was arrested by the addition of 2N H2SO4 in amount of 100 ul/well, and optical density (wavelength 490 nm) was measured by means of multiscan plate reader Victor3 V 1420 (Perkin Elmer). IC50 values (azole concentration, lowering the level of virus RNA-replicon on 50%) for every tested azole were calculated with the help of XLfit 4 program.
Type: cell-based
Conditions: not given

Compound	pIC50
COC(=O)N[C@H](C(=O)N1CCC[C@H]1c1nc(C#CC#Cc2ccc(-c3c[nH]c([C@@H]4CCCN4C(=O)[C@@H](NC(=O)OC)C(C)C)n3)cc2)c[nH]1)C(C)C	11.40

Same assay, conditions: 4 h

Compound	pIC50
COC(=O)N[C@H](C(=O)N1CCC[C@H]1c1nc(C#CC#Cc2ccc3cc(-c4c[nH]c([C@@H]5CCCN5C(=O)[C@@H](NC(=O)OC)C(C)C)n4)ccc3c2)c[nH]1)C(C)C	11.44
COC(=O)N[C@@H](C(=O)N1CCC[C@@H]1c1ncc(C#CC#Cc2ccc3cc(-c4cnc([C@H]5CCCN5C(=O)[C@H](NC(=O)OC)C(C)C)[nH]4)ccc3c2)[nH]1)C(C)C	11.34
COC(=O)N[C@H](C(=O)N1CCC[C@@H]1c1nc(C#CC#Cc2ccc(-c3c[nH]c([C@@H]4CCCN4C(=O)[C@@H](NC(=O)OC)C(C)C)n3)cc2)c[nH]1)c1ccccc1	11.27
COC(=O)N[C@@H](C(=O)N1CCC[C@H]1c1nc(-c2ccc(C#CC#Cc3c[nH]c([C@H]4CCCN4C(=O)[C@H](NC(=O)OC)C(C)C)n3)cc2)c[nH]1)c1ccccc1	11.09
COC(=O)N[C@H](C(=O)N1CCC[C@H]1c1nc(-c2ccc(C#CC#Cc3c[nH]c([C@H]4CCCN4C(=O)[C@H](NC(=O)OC)C(C)C)n3)cc2)c[nH]1)c1ccccc1	11.74
